According to paper PMC12446476 (Nature Communications, 2025):
≈ marks a conversion by molar mass, not a printed value. Where two headings read alike, the source gives them in different places.

System: non-gonococcal Neisseria
Test: MIC determination for non-gonococcal Neisseria, agar dilution
Format: cell-based, Neisseria species
Conditions: read-out: Minimum inhibitory concentration
Text: The 2024 WHO N. gonorrhoeae reference strains were used for quality control. Only whole MIC doubling dilutions are reported. Clinical breakpoints or the epidemiological cutoff (ECOFF, to indicate azithromycin resistance) from EUCAST (v14.0, https://www.eucast.org/clinical_breakpoints) were used to classify isolates as antimicrobial susceptible or resistant. […] Two times the standard inoculum defined by CLSI was used to establish consistent growth in untreated control samples for some strains. In vitro time-kill assays were performed according to CLSI guidelines[65] using Columbia Broth (BD Difco) supplemented with 1% IsoVitaleX Enrichment (BD). Viable bacterial counts were generated by plating 10-fold serially diluted samples on GC agar plates containing 1% IsoVitaleX Enrichment (BD).

Cc1c(CN(C)C(=O)/C=C/c2cnc3c(c2)N[C@H](C)[C@H](O)C(=O)N3)oc2ccccc12 [Debio 1453]
MIC (Neisseria lactamica 1, Replicate 3): 0.032 µg/mL (≈ 0.0761 µM) | MIC (Neisseria lactamica 2, Consensus): 0.064 µg/mL (≈ 0.152 µM) | MIC (Neisseria lactamica 2, Replicate 1): 0.064 µg/mL (≈ 0.152 µM) | MIC (Neisseria lactamica 2, Replicate 2): 0.064 µg/mL (≈ 0.152 µM) | MIC (Neisseria lactamica 2, Replicate 3): 0.064 µg/mL (≈ 0.152 µM) | MIC (Neisseria lactamica 3, Consensus): 0.016 µg/mL (≈ 0.0381 µM) | MIC (Neisseria lactamica 3, Replicate 1): 0.016 µg/mL (≈ 0.0381 µM) | MIC (Neisseria lactamica 3, Replicate 2): 0.016 µg/mL (≈ 0.0381 µM) | MIC (Neisseria lactamica 3, Replicate 3): 0.016 µg/mL (≈ 0.0381 µM) | MIC (Neisseria lactamica 4, Consensus): 0.064 µg/mL (≈ 0.152 µM) | MIC (Neisseria lactamica 4, Replicate 1): 0.064 µg/mL (≈ 0.152 µM) | MIC (Neisseria lactamica 4, Replicate 2): 0.064 µg/mL (≈ 0.152 µM) | MIC (Neisseria lactamica 4, Replicate 3): 0.064 µg/mL (≈ 0.152 µM) | MIC (Neisseria lactamica 5, Consensus): 0.016 µg/mL (≈ 0.0381 µM) | MIC (Neisseria lactamica 5, Replicate 1): 0.032 µg/mL (≈ 0.0761 µM) | MIC (Neisseria lactamica 5, Replicate 2): 0.016 µg/mL (≈ 0.0381 µM) | MIC (Neisseria lactamica 5, Replicate 3): 0.016 µg/mL (≈ 0.0381 µM) | MIC (Neisseria lactamica 6, Consensus): 0.032 µg/mL (≈ 0.0761 µM) | MIC (Neisseria lactamica 6, Replicate 1): 0.032 µg/mL (≈ 0.0761 µM) | MIC (Neisseria lactamica 6, Replicate 2): 0.032 µg/mL (≈ 0.0761 µM) | MIC (Neisseria lactamica 6, Replicate 3): 0.032 µg/mL (≈ 0.0761 µM) | MIC (Neisseria lactamica 7, Consensus): 0.032 µg/mL (≈ 0.0761 µM) | MIC (Neisseria lactamica 7, Replicate 1): 0.032 µg/mL (≈ 0.0761 µM) | MIC (Neisseria lactamica 7, Replicate 2): 0.032 µg/mL (≈ 0.0761 µM) | MIC (Neisseria lactamica 7, Replicate 3): 0.064 µg/mL (≈ 0.152 µM) | MIC (Neisseria lactamica 8, Consensus): 0.032 µg/mL (≈ 0.0761 µM) | MIC (Neisseria lactamica 8, Replicate 1): 0.032 µg/mL (≈ 0.0761 µM) | MIC (Neisseria lactamica 8, Replicate 2): 0.032 µg/mL (≈ 0.0761 µM) | MIC (Neisseria lactamica 8, Replicate 3): 0.064 µg/mL (≈ 0.152 µM) | MIC (Neisseria lactamica 9, Consensus): 0.064 µg/mL (≈ 0.152 µM) | MIC (Neisseria lactamica 9, Replicate 1): 0.064 µg/mL (≈ 0.152 µM) | MIC (Neisseria lactamica 9, Replicate 2): 0.032 µg/mL (≈ 0.0761 µM) | MIC (Neisseria lactamica 9, Replicate 3): 0.064 µg/mL (≈ 0.152 µM) | MIC (Neisseria lactamica 10, Consensus): 0.032 µg/mL (≈ 0.0761 µM) | MIC (Neisseria lactamica 10, Replicate 1): 0.032 µg/mL (≈ 0.0761 µM) | MIC (Neisseria lactamica 10, Replicate 2): 0.016 µg/mL (≈ 0.0381 µM) | MIC (Neisseria lactamica 10, Replicate 3): 0.032 µg/mL (≈ 0.0761 µM) | MIC (Neisseria lactamica 11, Consensus): 0.032 µg/mL (≈ 0.0761 µM) | MIC (Neisseria lactamica 11, Replicate 1): 0.032 µg/mL (≈ 0.0761 µM) | MIC (Neisseria lactamica 11, Replicate 2): 0.032 µg/mL (≈ 0.0761 µM) | MIC (Neisseria lactamica 11, Replicate 3): 0.032 µg/mL (≈ 0.0761 µM) | MIC (Neisseria macacae 1, Consensus): 2 µg/mL (≈ 4.76 µM) | MIC (Neisseria macacae 1, Replicate 1): 1 µg/mL (≈ 2.38 µM) | MIC (Neisseria macacae 1, Replicate 2): 2 µg/mL (≈ 4.76 µM) | MIC (Neisseria macacae 1, Replicate 3): 2 µg/mL (≈ 4.76 µM) | MIC (Neisseria macacae 2, Consensus): 2 µg/mL (≈ 4.76 µM) | MIC (Neisseria macacae 2, Replicate 1): 2 µg/mL (≈ 4.76 µM) | MIC (Neisseria macacae 2, Replicate 2): 2 µg/mL (≈ 4.76 µM) | MIC (Neisseria macacae 2, Replicate 3): 2 µg/mL (≈ 4.76 µM) | MIC (Neisseria macacae 3, Consensus): 0.25 µg/mL (≈ 0.595 µM) | MIC (Neisseria macacae 3, Replicate 1): 0.25 µg/mL (≈ 0.595 µM) | MIC (Neisseria macacae 3, Replicate 2): 0.25 µg/mL (≈ 0.595 µM) | MIC (Neisseria macacae 3, Replicate 3): 0.5 µg/mL (≈ 1.19 µM) | MIC (Neisseria macacae 4, Consensus): 2 µg/mL (≈ 4.76 µM) | MIC (Neisseria macacae 4, Replicate 1): 1 µg/mL (≈ 2.38 µM) | MIC (Neisseria macacae 4, Replicate 2): 2 µg/mL (≈ 4.76 µM) | MIC (Neisseria macacae 4, Replicate 3): 2 µg/mL (≈ 4.76 µM) | MIC (Neisseria macacae 5, Consensus): 2 µg/mL (≈ 4.76 µM) | MIC (Neisseria macacae 5, Replicate 1): 2 µg/mL (≈ 4.76 µM) | MIC (Neisseria macacae 5, Replicate 2): 2 µg/mL (≈ 4.76 µM) | MIC (Neisseria macacae 5, Replicate 3): 2 µg/mL (≈ 4.76 µM) | MIC (Neisseria macacae 6, Consensus): 0.5 µg/mL (≈ 1.19 µM) | MIC (Neisseria macacae 6, Replicate 1): 0.25 µg/mL (≈ 0.595 µM) | MIC (Neisseria macacae 6, Replicate 2): 0.5 µg/mL (≈ 1.19 µM) | MIC (Neisseria macacae 6, Replicate 3): 0.5 µg/mL (≈ 1.19 µM) | MIC (Neisseria macacae 7, Consensus): 0.5 µg/mL (≈ 1.19 µM) | MIC (Neisseria macacae 7, Replicate 1): 0.25 µg/mL (≈ 0.595 µM) | MIC (Neisseria macacae 7, Replicate 2): 0.5 µg/mL (≈ 1.19 µM) | MIC (Neisseria macacae 7, Replicate 3): 0.5 µg/mL (≈ 1.19 µM) | MIC (Neisseria meningitidis gr 29E, Consensus): 0.064 µg/mL (≈ 0.152 µM) | MIC (Neisseria meningitidis gr 29E, Replicate 1): 0.064 µg/mL (≈ 0.152 µM) | MIC (Neisseria meningitidis gr 29E, Replicate 2): 0.032 µg/mL (≈ 0.0761 µM) | MIC (Neisseria meningitidis gr 29E, Replicate 3): 0.064 µg/mL (≈ 0.152 µM) | MIC (Neisseria meningitidis gr A, Consensus): 0.032 µg/mL (≈ 0.0761 µM) | MIC (Neisseria meningitidis gr A, Replicate 1): 0.032 µg/mL (≈ 0.0761 µM) | MIC (Neisseria meningitidis gr A, Replicate 2): 0.032 µg/mL (≈ 0.0761 µM) | MIC (Neisseria meningitidis gr A, Replicate 3): 0.032 µg/mL (≈ 0.0761 µM) | MIC (Neisseria meningitidis gr B, Consensus): 0.016 µg/mL (≈ 0.0381 µM) | MIC (Neisseria meningitidis gr B, Replicate 1): 0.016 µg/mL (≈ 0.0381 µM) | MIC (Neisseria meningitidis gr B, Replicate 2): 0.016 µg/mL (≈ 0.0381 µM) | MIC (Neisseria meningitidis gr B, Replicate 3): 0.016 µg/mL (≈ 0.0381 µM) | MIC (Neisseria meningitidis gr C, Consensus): 0.032 µg/mL (≈ 0.0761 µM) | MIC (Neisseria meningitidis gr C, Replicate 1): 0.032 µg/mL (≈ 0.0761 µM) | MIC (Neisseria meningitidis gr C, Replicate 2): 0.032 µg/mL (≈ 0.0761 µM) | MIC (Neisseria meningitidis gr C, Replicate 3): 0.032 µg/mL (≈ 0.0761 µM) | MIC (Neisseria meningitidis gr W, Consensus): 0.008 µg/mL (≈ 0.019 µM) | MIC (Neisseria meningitidis gr W, Replicate 1): 0.008 µg/mL (≈ 0.019 µM) | MIC (Neisseria meningitidis gr W, Replicate 2): 0.008 µg/mL (≈ 0.019 µM) | MIC (Neisseria meningitidis gr W, Replicate 3): 0.008 µg/mL (≈ 0.019 µM) | MIC (Neisseria meningitidis gr X, Consensus): 0.016 µg/mL (≈ 0.0381 µM) | MIC (Neisseria meningitidis gr X, Replicate 1): 0.016 µg/mL (≈ 0.0381 µM) | MIC (Neisseria meningitidis gr X, Replicate 2): 0.016 µg/mL (≈ 0.0381 µM) | MIC (Neisseria meningitidis gr X, Replicate 3): 0.016 µg/mL (≈ 0.0381 µM) | MIC (Neisseria meningitidis gr Y, Consensus): 0.008 µg/mL (≈ 0.019 µM) | MIC (Neisseria meningitidis gr Y, Replicate 1): 0.016 µg/mL (≈ 0.0381 µM) | MIC (Neisseria meningitidis gr Y, Replicate 2): 0.008 µg/mL (≈ 0.019 µM) | MIC (Neisseria meningitidis gr Y, Replicate 3): 0.008 µg/mL (≈ 0.019 µM) | MIC (Neisseria meningitidis gr Z, Consensus): 0.016 µg/mL (≈ 0.0381 µM) | MIC (Neisseria meningitidis gr Z, Replicate 1): 0.032 µg/mL (≈ 0.0761 µM) | MIC (Neisseria meningitidis gr Z, Replicate 2): 0.016 µg/mL (≈ 0.0381 µM) | MIC (Neisseria meningitidis gr Z, Replicate 3): 0.016 µg/mL (≈ 0.0381 µM) | MIC (Neisseria mucosa 1, Consensus): 0.25 µg/mL (≈ 0.595 µM) | MIC (Neisseria mucosa 1, Replicate 1): 0.25 µg/mL (≈ 0.595 µM) | MIC (Neisseria mucosa 1, Replicate 2): 0.5 µg/mL (≈ 1.19 µM) | MIC (Neisseria mucosa 1, Replicate 3): 0.25 µg/mL (≈ 0.595 µM) | MIC (Neisseria mucosa 2, Replicate 1): 0.064 µg/mL (≈ 0.152 µM) | MIC (Neisseria mucosa 3, Consensus): 0.032 µg/mL (≈ 0.0761 µM) | MIC (Neisseria mucosa 3, Replicate 1): 0.032 µg/mL (≈ 0.0761 µM) | MIC (Neisseria mucosa 3, Replicate 2): 0.032 µg/mL (≈ 0.0761 µM) | MIC (Neisseria mucosa 3, Replicate 3): 0.064 µg/mL (≈ 0.152 µM) | MIC (Neisseria mucosa 4, Consensus): 1 µg/mL (≈ 2.38 µM)
